Drawing on ChEMBL document CHEMBL3243920, “Quantitative structure-activity relationships of chymotrypsin. On the predictive value of correlation equations” (J Med Chem, 1977), this text covers log1/Ki for 33 compounds.

The assay in a line: Inhibition of chymotrypsin (unknown origin). The settings on record: Homo sapiens.

Structures are written as SMILES.

On to `CC(=O)Nc1ccccc1`, for which the log1/Ki amounted to 1.89.

Compound `O=CNc1ccc([N+](=O)[O-])cc1` had a log1/Ki of 2.42.

On to `NC(=O)Cc1ccccc1`, for which the log1/Ki amounted to 1.82.

In turn, `COc1ccc(NC=O)cc1` showed a log1/Ki of 2.06.

For `O=CNc1cccc(Cl)c1`, the log1/Ki was found to be 3.1.

As for `O=C(O)C(Cc1ccc(Br)cc1)NC(=O)C(F)(F)F` (stereo not drawn), the log1/Ki amounted to 3.

Compound `COC(=O)c1nc2ccccc2[nH]1` yielded a log1/Ki of 2.25.

`O=C(CCl)NCc1ccccc1` registered a log1/Ki of 2.31.

Compound `NC(=O)c1ccnc2ccccc12` returned a log1/Ki of 2.08.

The compound `O=CNc1ccc(Cl)cc1` came in with a log1/Ki of 3.4.

`NC(=O)CCc1c[nH]c2ccccc12`: the log1/Ki was 2.64.

On to `N#Cc1ccc(NC=O)cc1`, for which the log1/Ki is 1.9.

The compound `CCC(=O)NCc1ccccc1` came in with a log1/Ki of 2.2.

`NC(=O)c1ccccc1`: the log1/Ki is 2.

As to `CC(=O)c1ccc(NC=O)cc1`, the log1/Ki was found to be 1.72.

Take `NC(=O)CNC(=O)c1ccccc1`: the log1/Ki was 1.9.

In turn, `CC(=O)NCc1ccccc1` came in with a log1/Ki of 2.12.

With `O=C(CCl)NCCc1ccccc1`, the log1/Ki stood at 2.

`CCC(=O)Nc1ccccc1` gave a log1/Ki of 2.18.

Turning to `Cc1ccc(CC(NC(=O)C(F)(F)F)C(=O)O)cc1` (stereo not drawn), the log1/Ki was 2.82.

In turn, `O=CNc1ccccc1` had a log1/Ki of 2.4.

Take `O=C(O)C(Cc1cccc(F)c1)NC(=O)C(F)(F)F` (stereo not drawn): the log1/Ki is 2.57.

`O=C(NCCc1c[nH]c2ccccc12)C(F)(F)F` came in with a log1/Ki of 2.92.

The compound `Cc1cccc(CC(NC(=O)C(F)(F)F)C(=O)O)c1` (stereo not drawn) had a log1/Ki of 2.35.

Compound `O=C(O)C(Cc1ccccc1)NC(=O)C(F)(F)F` (stereo not drawn) gave a log1/Ki of 2.1.

`NC(=O)CCCc1ccccc1` gave a log1/Ki of 1.92.

As to `CC(=O)NCCc1c[nH]c2ccccc12`, the log1/Ki turned out to be 2.74.

Consider `CC(=O)NCCc1ccccc1`, for which the log1/Ki worked out at 1.94.

In the case of `O=C(O)C(Cc1ccc(F)cc1F)NC(=O)C(F)(F)F` (stereo not drawn), the log1/Ki was found to be 2.35.

The compound `COc1cccc(NC=O)c1` gave a log1/Ki of 2.17.

Compound `NC(=O)CCc1ccccc1` yielded a log1/Ki of 2.15.

Compound `O=C(O)C(Cc1ccc(F)cc1)NC(=O)C(F)(F)F` (stereo not drawn) came in with a log1/Ki of 2.89.

`Cc1ccc(NC=O)cc1` displayed a log1/Ki of 2.52.
